Experimental data from ChEMBL document CHEMBL2321811, “Conjugates of modified cryptophycins and RGD-peptides enter target cells by endocytosis” (J Med Chem, 2013).

Experiments:
[1] = Cytotoxicity against human KBV1 cells by resazurin reduction assay; assay type: functional, cell-based; conditions: KB-V1
[2] = Cytotoxicity against human KB-3-1 cells by resazurin reduction assay; assay type: functional, cell-based
[3] = Binding affinity to integrin in human WM-115 cells after 30 mins by immobilized vitronectin-based competitive cell adhesion assay

Compound | IC50 [1] | IC50 [2] | IC50 [3]
C=CCOC(=O)C[C@@H]1CNC(=O)[C@@H](Cc2ccc(OC)c(Cl)c2)NC(=O)/C=C/C[C@@H]([C@H](C)[C@H]2O[C@@H]2c2ccccc2)OC(=O)[C@H](CC(C)C)OC1=O | 2.7 nM | 0.0961 nM | 
C=CCOC(=O)C[C@H]1CNC(=O)[C@@H](Cc2ccc(OC)c(Cl)c2)NC(=O)/C=C/C[C@@H]([C@H](C)[C@H]2O[C@@H]2c2ccccc2)OC(=O)[C@H](CC(C)C)OC1=O | 6 nM | 0.0083 nM | 
C=CCOC(=O)CCC[C@@H]1CNC(=O)[C@@H](Cc2ccc(OC)c(Cl)c2)NC(=O)/C=C/C[C@@H]([C@H](C)[C@H]2O[C@@H]2c2ccccc2)OC(=O)[C@H](CC(C)C)OC1=O | 45.2 nM | 0.433 nM | 
C=CCOCCC[C@@H]1CNC(=O)[C@@H](Cc2ccc(OC)c(Cl)c2)NC(=O)/C=C/C[C@@H]([C@H](C)[C@H]2O[C@@H]2c2ccccc2)OC(=O)[C@H](CC(C)C)OC1=O | 26.6 nM | 0.149 nM | 
C=CCOCCC[C@H]1CNC(=O)[C@@H](Cc2ccc(OC)c(Cl)c2)NC(=O)/C=C/C[C@@H]([C@H](C)[C@H]2O[C@@H]2c2ccccc2)OC(=O)[C@H](CC(C)C)OC1=O | 38 nM | 0.0527 nM | 
COc1ccc(C[C@H]2NC(=O)/C=C/C[C@@H]([C@H](C)[C@H]3O[C@@H]3c3ccccc3)OC(=O)[C@H](CC(C)C)OC(=O)[C@H](CCN=[N+]=[N-])CNC2=O)cc1Cl | 2.1 nM | 0.0216 nM | 
COc1ccc(C[C@H]2NC(=O)/C=C/C[C@@H]([C@H](C)[C@H]3O[C@@H]3c3ccccc3)OC(=O)[C@H](CC(C)C)OC(=O)[C@@H](CCN=[N+]=[N-])CNC2=O)cc1Cl | 14.1 nM | 0.0546 nM | 
COc1ccc(C[C@H]2NC(=O)/C=C/C[C@@H]([C@H](C)[C@H]3O[C@@H]3c3ccccc3)OC(=O)[C@H](CC(C)C)OC(=O)[C@H](CCCN=[N+]=[N-])CNC2=O)cc1Cl | 18.4 nM | 0.112 nM | 
COc1ccc(C[C@H]2NC(=O)/C=C/C[C@@H]([C@H](C)[C@H]3O[C@@H]3c3ccccc3)OC(=O)[C@H](CC(C)C)OC(=O)[C@@H](CCCN=[N+]=[N-])CNC2=O)cc1Cl | 114 nM | 11.5 nM | 
COc1ccc(C[C@H]2NC(=O)/C=C/C[C@@H]([C@H](C)[C@H]3O[C@@H]3c3ccccc3)OC(=O)[C@H](CC(C)C)OC(=O)[C@H](CCCCN=[N+]=[N-])CNC2=O)cc1Cl | 23.5 nM | 0.249 nM | 
COc1ccc(C[C@H]2NC(=O)/C=C/C[C@@H]([C@H](C)[C@H]3O[C@@H]3c3ccccc3)OC(=O)[C@H](CC(C)C)OC(=O)[C@H](CCCn3cc(C(C)(C)O)nn3)CNC2=O)cc1Cl | 411 nM | 0.101 nM | 
COc1ccc(C[C@H]2NC(=O)/C=C/C[C@@H]([C@H](C)[C@H]3O[C@@H]3c3ccccc3)OC(=O)[C@H](CC(C)C)OC(=O)[C@@H](CCCn3cc(C(C)(C)O)nn3)CNC2=O)cc1Cl | 3020 nM | 0.312 nM | 
COc1ccc(C[C@H]2NC(=O)/C=C/C[C@@H]([C@H](C)[C@H]3O[C@@H]3c3ccccc3)OC(=O)[C@H](CC(C)C)OC(=O)[C@@H](CCCn3cc(C[C@@H]4NC(=O)[C@@H](Cc5ccccc5)NC(=O)[C@H](CC(=O)O)NC(=O)CNC(=O)[C@H](CCCNC(=N)N)NC4=O)nn3)CNC2=O)cc1Cl | 1800 nM | 55.8 nM | 
COc1ccc(C[C@H]2NC(=O)/C=C/C[C@@H]([C@H](C)[C@H]3O[C@@H]3c3ccccc3)OC(=O)[C@H](CC(C)C)OC(=O)C(C)(C)CNC2=O)cc1Cl [CRYPTOPHYCIN 52] | 0.26 nM | 0.0155 nM | 
CC(C)[C@@H]1NC(=O)[C@@H](Cc2ccccc2)NC(=O)[C@H](CC(=O)O)NC(=O)CNC(=O)[C@H](CCCN=C(N)N)NC1=O [CYCLORGDFV] |  |  | 500 nM
